Results taken from PubChem BioAssay AID328 (DTP/NCI, 2004).
“And” between values parts separate entries of the source, which are not always exact repeats. Identical values can stand only once. Inconclusive results and toxic doses are left out.

Test system: BDF1 mice, P388 leukemia ip, median survival T/C
Assay: NCI In Vivo Anticancer Drug Screen. Data for tumor model P388 Leukemia (intraperitoneal) in B6D2F1 (BDF1) mice
Details: endpoint: median survival time, higher = longer survival
In short: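 T/C = treated-group survival ÷ vehicle-control survival; tumour transplanted into mice before dosing.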

[1] = dose: 50.0 mg/kg/injection, schedule: Q04DX003 (ip), vehicle: saline with Tween-80
[2] = dose: 100.0 mg/kg/injection, schedule: Q01DX009 (ip), vehicle: saline with Tween-80
[3] = dose: 100.0 mg/kg/injection, schedule: Q04DX003 (ip), vehicle: saline with Tween-80
[4] = dose: 200.0 mg/kg/injection, schedule: Q01DX009 (ip), vehicle: saline with Tween-80
[5] = dose: 200.0 mg/kg/injection, schedule: Q04DX003 (ip), vehicle: saline with Tween-80
[6] = dose: 400.0 mg/kg/injection, schedule: Q04DX003 (ip), vehicle: saline with Tween-80
[7] = dose: 25.0 mg/kg/injection, schedule: Q01DX009 (ip), vehicle: saline with Tween-80
[8] = dose: 50.0 mg/kg/injection, schedule: Q01DX009 (ip), vehicle: saline with Tween-80
[9] = dose: 400.0 mg/kg/injection, schedule: Q01DX009 (ip), vehicle: saline with Tween-80
[10] = dose: 6.25 mg/kg/injection, schedule: Q01DX009 (ip), vehicle: saline
[11] = dose: 100.0 mg/kg/injection, schedule: Q04DX003 (ip), vehicle: saline
[12] = dose: 200.0 mg/kg/injection, schedule: Q04DX003 (ip), vehicle: saline
[13] = dose: 400.0 mg/kg/injection, schedule: Q04DX003 (ip), vehicle: saline
[14] = dose: 25.0 mg/kg/injection, schedule: Q01DX010 (ip), vehicle: saline
[15] = dose: 50.0 mg/kg/injection, schedule: Q01DX010 (ip), vehicle: saline

## CC(C)N(CC#N)C(C)C
dose: 0.25 mg/kg/injection, schedule: Q04DX003 (ip), vehicle: saline with Tween-80
  T/C: 91 % of control
dose: 0.5 mg/kg/injection, schedule: Q04DX003 (ip), vehicle: saline with Tween-80
  T/C: 101 % of control

## O=C1c2ccccc2C(=O)N1CCc1ccccn1
[1]
  T/C: 100 % of control
[2]
  T/C: 100 % of control
[3]
  T/C: 95 % of control and 111 % of control
[4]
  T/C: 95 % of control
[5]
  T/C: 100 % of control and 111 % of control
[6]
  T/C: 88 % of control

## COc1cc(C=Nc2cccc(F)c2)ccc1N(CCCl)CCCl
dose: 1.25 mg/kg/injection, schedule: Q01DX009 (ip), vehicle: other
  T/C: 180 % of control
dose: 2.5 mg/kg/injection, schedule: Q01DX009 (ip), vehicle: other
  T/C: 195 % of control
dose: 3.13 mg/kg/injection, schedule: Q01DX009 (ip), vehicle: other
  T/C: 168 % of control
dose: 5.0 mg/kg/injection, schedule: Q01DX009 (ip), vehicle: other
  T/C: 280 % of control
dose: 6.25 mg/kg/injection, schedule: Q01DX009 (ip), vehicle: other
  T/C: 181 % of control
dose: 12.5 mg/kg/injection, schedule: Q01DX009 (ip), vehicle: other
  T/C: 95 % of control
dose: 25.0 mg/kg/injection, schedule: Q04DX003 (ip), vehicle: saline sonified
  T/C: 95 % of control
dose: 50.0 mg/kg/injection, schedule: Q04DX003 (ip), vehicle: saline sonified
  T/C: 100 % of control
dose: 100.0 mg/kg/injection, schedule: Q04DX003 (ip), vehicle: saline sonified
  T/C: 195 % of control

## Cc1cccc(N2CCN(CCC#N)CC2)c1
[7]
  T/C: 91 % of control
[8]
  T/C: 95 % of control
[2]
  T/C: 91 % of control

## [Cl][Pt+2][Cl].[NH-]C1CCCC1.[NH-]C1CCCC1
dose: 10.0 mg/kg/injection, schedule: Q01DX009 (ip), vehicle: Klucel (hydroxypropylcellulose) (HPC)
  T/C: 96 % of control
dose: 20.0 mg/kg/injection, schedule: Q01DX009 (ip), vehicle: Klucel (hydroxypropylcellulose) (HPC)
  T/C: 107 % of control
dose: 40.0 mg/kg/injection, schedule: Q01DX009 (ip), vehicle: Klucel (hydroxypropylcellulose) (HPC)
  T/C: 112 % of control
dose: 80.0 mg/kg/injection, schedule: Q01DX009 (ip), vehicle: Klucel (hydroxypropylcellulose) (HPC)
  T/C: 117 % of control

## COC(=O)C(CSCSC)NC(=O)/C=C/c1ccc(C)cc1 (centres undefined)
[8]
  T/C: 109 % of control
[2]
  T/C: 109 % of control
[3]
  T/C: 91 % of control
[4]
  T/C: 92 % of control
[5]
  T/C: 91 % of control
[9]
  T/C: 100 % of control
[6]
  T/C: 88 % of control

## Cn1cc(C=O)c2nccnc21
dose: 0.78 mg/kg/injection, schedule: Q01DX009 (ip), vehicle: saline
  T/C: 92 % of control
dose: 1.56 mg/kg/injection, schedule: Q01DX009 (ip), vehicle: saline
  T/C: 112 % of control
[10]
  T/C: 91 % of control
dose: 12.5 mg/kg/injection, schedule: Q01DX009 (ip), vehicle: saline
  T/C: 86 % of control
[2]
  T/C: 117 % of control
dose: 100.0 mg/kg/injection, schedule: Q01DX009 (ip), vehicle: saline
  T/C: 108 % of control

## C=CCCCCCCCCC(=O)NCc1cccnc1
[2]
  T/C: 86 % of control
[4]
  T/C: 95 % of control
[9]
  T/C: 100 % of control

## CC(C)(Br)C(=O)c1ccc([N+](=O)[O-])o1
dose: 0.78 mg/kg/injection, schedule: Q01DX009 (ip), vehicle: water
  T/C: 95 % of control
dose: 1.56 mg/kg/injection, schedule: Q01DX009 (ip), vehicle: water
  T/C: 89 % of control
dose: 3.12 mg/kg/injection, schedule: Q01DX009 (ip), vehicle: saline
  T/C: 116 % of control
dose: 3.12 mg/kg/injection, schedule: Q01DX009 (ip), vehicle: water
  T/C: 87 % of control
[10]
  T/C: 123 % of control
dose: 6.25 mg/kg/injection, schedule: Q01DX009 (ip), vehicle: water
  T/C: 105 % of control
dose: 12.5 mg/kg/injection, schedule: Q01DX009 (ip), vehicle: saline with Tween-80
  T/C: 95 % of control
dose: 12.5 mg/kg/injection, schedule: Q01DX009 (ip), vehicle: water
  T/C: 104 % of control
[7]
  T/C: 100 % of control
dose: 25.0 mg/kg/injection, schedule: Q01DX009 (ip), vehicle: saline
  T/C: 116 % of control
dose: 25.0 mg/kg/injection, schedule: Q04DX003 (ip), vehicle: saline with Tween-80
  T/C: 107 % of control
[8]
  T/C: 95 % of control
[1]
  T/C: 109 % of control
[2]
  T/C: 87 % of control
[3]
  T/C: 100 % of control

## COc1cc2c(c(OC)c1OC)-c1ccc(SCc3ccccc3)c(=O)cc1[C@@H](NC(C)=O)CC2
dose: 8.2 mg/kg/injection, schedule: Q01DX009 (ip), vehicle: Klucel (hydroxypropylcellulose) (HPC)
  T/C: 117 % of control
dose: 12.5 mg/kg/injection, schedule: Q01DX009 (ip), vehicle: Klucel (hydroxypropylcellulose) (HPC)
  T/C: 170 % of control

## CCN(CC)CCOc1ccccc1C
dose: 20.0 mg/kg/injection, schedule: Q01DX009 (ip), vehicle: saline
  T/C: 107 % of control
dose: 20.0 mg/kg/injection, schedule: Q04DX003 (ip), vehicle: saline
  T/C: 100 % of control
dose: 40.0 mg/kg/injection, schedule: Q01DX009 (ip), vehicle: saline
  T/C: 100 % of control
dose: 40.0 mg/kg/injection, schedule: Q04DX003 (ip), vehicle: saline
  T/C: 91 % of control
dose: 80.0 mg/kg/injection, schedule: Q01DX009 (ip), vehicle: saline
  T/C: 89 % of control
dose: 80.0 mg/kg/injection, schedule: Q04DX003 (ip), vehicle: saline
  T/C: 91 % of control

## CN(C)C(=S)S
dose: 50.0 mg/kg/injection, schedule: Q04DX003 (ip), vehicle: saline
  T/C: 103 % of control
[11]
  T/C: 103 % of control
[12]
  T/C: 105 % of control
[13]
  T/C: 117 % of control

## COC(=O)CC1C(=O)C(C)(C(=O)OC)CCC1c1ccc(OC)cc1 (centres undefined)
[11]
  T/C: 109 % of control
[12]
  T/C: 109 % of control
[13]
  T/C: 104 % of control

## O=C(Cc1ccc([N+](=O)[O-])cc1)c1ccccc1
dose: 100.0 mg/kg/injection, schedule: Q04DX003 (ip), vehicle: Klucel (hydroxypropylcellulose) (HPC)
  T/C: 112 % of control
dose: 200.0 mg/kg/injection, schedule: Q04DX003 (ip), vehicle: Klucel (hydroxypropylcellulose) (HPC)
  T/C: 104 % of control
dose: 400.0 mg/kg/injection, schedule: Q04DX003 (ip), vehicle: Klucel (hydroxypropylcellulose) (HPC)
  T/C: 91 % of control

## NC12CC3CC(CC(C3)C1)C2
[14]
  T/C: 100 % of control
[15]
  T/C: 100 % of control
dose: 100.0 mg/kg/injection, schedule: Q01DX010 (ip), vehicle: saline
  T/C: 100 % of control

## Cc1cccc(CSc2nc(N)nc3c2ncn3C2CC(O)C(CO)O2)n1 (centres undefined)
[11]
  T/C: 92 % of control
[12]
  T/C: 98 % of control
[13]
  T/C: 104 % of control

## CCN(CC)c1ccc(NC(=O)Nc2ccccc2OC)cc1
[3]
  T/C: 95 % of control
[5]
  T/C: 100 % of control
[6]
  T/C: 100 % of control

## C=C(C)C(=O)/C(=C/C(=O)O)OC
dose: 12.5 mg/kg/injection, schedule: Q01DX010 (ip), vehicle: saline
  T/C: 113 % of control
[14]
  T/C: 109 % of control
[15]
  T/C: 118 % of control

## [Cl][Hg][Cl].c1cnccn1
dose: 0.25 mg/kg/injection, schedule: Q01DX009 (ip), vehicle: saline with Tween-80
  T/C: 104 % of control
dose: 0.5 mg/kg/injection, schedule: Q01DX009 (ip), vehicle: saline with Tween-80
  T/C: 96 % of control and 109 % of control
dose: 2.0 mg/kg/injection, schedule: Q04DX003 (ip), vehicle: saline with Tween-80
  T/C: 95 % of control and 100 % of control
dose: 4.0 mg/kg/injection, schedule: Q01DX009 (ip), vehicle: saline with Tween-80
  T/C: 96 % of control
dose: 4.0 mg/kg/injection, schedule: Q04DX003 (ip), vehicle: saline with Tween-80
  T/C: 95 % of control and 96 % of control
dose: 5.0 mg/kg/injection, schedule: Q04DX003 (ip), vehicle: saline with Tween-80
  T/C: 116 % of control
dose: 8.0 mg/kg/injection, schedule: Q04DX003 (ip), vehicle: saline with Tween-80
  T/C: 111 % of control and 119 % of control

## CCCC/C=C/CO
[8]
  T/C: 108 % of control
[2]
  T/C: 103 % of control
